Molecules are shown by their SMILES.

One experiment addresses T1, Human FPR1 (Homo sapiens, UniProt P21462).
T1 construct: expressed in transfected cells; host or cells: CHO-A12
T1 sequence (P21462 1-350): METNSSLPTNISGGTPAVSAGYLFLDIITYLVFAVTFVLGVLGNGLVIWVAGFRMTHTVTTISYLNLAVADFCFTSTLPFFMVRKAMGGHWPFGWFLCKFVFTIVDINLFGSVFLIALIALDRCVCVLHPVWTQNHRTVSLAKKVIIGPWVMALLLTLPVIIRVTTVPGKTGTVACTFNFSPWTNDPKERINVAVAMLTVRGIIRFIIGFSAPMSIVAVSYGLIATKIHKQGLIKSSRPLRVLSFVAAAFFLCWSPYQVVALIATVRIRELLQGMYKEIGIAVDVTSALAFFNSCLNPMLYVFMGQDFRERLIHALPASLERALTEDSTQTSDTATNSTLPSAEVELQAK
As to the kind of experiment: FPR1 cAMP assay (cAMP inhibition). It counts as cell-based. The following applies: Human FPR1/CHO-A12. The protocol:
A mixture of forskolin (5 μM final for FPR2 or 10 μM final for FPR1) and IBMX (200 μM final) were added to 384-well Proxiplates (Perkin-Elmer) pre-dotted with test compounds in DMSO (1% final) at final concentrations in the range of 0.1 nM to 10 μM. CHO overexpressing human FPR1 or human FPR2 receptors were cultured in F-12 (Ham's) medium supplemented with 10% qualified FBS, 250 μg/ml zeocin and 300 μg/ml hygromycin (Life Technologies). Reactions were initiated by adding 2,000 human FPR2 cells per well or 4,000 human FPR1 cells per well in Dulbecco's PBS (with calcium and magnesium) (Life Technologies) supplemented with 0.1% BSA (Perkin-Elmer). The reaction mixtures were incubated for 30 min at room temperature. The level of intracellular cAMP was determined using the HTRF HiRange cAMP assay reagent kit (Cisbio) according to manufacturer's instruction. Solutions of cryptate conjugated anti-cAMP and d2 flurorophore-labelled cAMP were made in a supplied lysis buffer separately. […] After a 1 h room temperature incubation, time-resolved fluorescence intensity was measured using the Envision (Perkin-Elmer) at 400 nm excitation and dual emission at 590 nm and 665 nm. […] The potency and activity of Compound 1 to inhibit cAMP production was then determined by fitting to a 4-parametric logistic equation from a plot of cAMP level versus compound concentrations. […]

The target of experiment [1] is Rat FPR2 (Rattus norvegicus, UniProt A0A8I6AM80). The experiment is described as follows: cAMP inhibition, rat FPR2 CHO cells. As to conditions: Rat FPR2. It counts as cell-based.
Experiment [2] has as its system Rat FPR2. As to the kind of experiment: cAMP inhibition, rat FPR2 CHO cells. The following applies: CHO cell lines, cAMP. Type of experiment: cell-based.
For experiment [3], the system named is ischemia-reperfusion myocardial infarction in rats. The experiment is described as follows: Rat model of ischemia-reperfusion myocardial infarction, 6 weeks. Type of experiment: in vivo. The protocol: In a third model of myocardial infarction, transient coronary artery occlusion followed by reperfusion was carried out in rats to induce myocardial infarction and to assess salvage of myocardium within the area at risk of myocardial infarction. Treatment with orally-administered Compound 1 (0.01, 0.1, 1, and 10 mg/kg, QD) or dosing solution without compound (QD, referred to as vehicle) was initiated 48 hours following myocardial infarction. Rats subjected to thoracotomy but not infarcted were included as surgical “sham” controls. Rats were evaluated 6 weeks following myocardial infarction to assess structure/function relationships. Hearts were removed from rats for histological processing to the extent of myocardial salvage with Compound 1 treatment. The pressure-volume conductance catheter technique was used to evaluate cardiac function.
The effects of Compound 1 on left ventricle and infarct scar remodeling were evaluated in a rat model of ischemia-reperfusion myocardial infarction. Treatments were initiated 48 hr after MI and were continued for 6 weeks. MI was created by transient ligation the left anterior descending artery with a surgical suture for 1 hour followed by reperfusion. Treatments consisted of a suspension vehicle, Compound 1 at 0.01, 0.1, 1 and 10 mg/kg. At the end of 6 weeks of treatment, hearts were removed for histological evaluation of left ventricle structure and scar structure. This is a model of ischemic heart disease.
In addition, the effect of Compound 1 on cardiac function was measured by the pressure-volume conductance catheter technique to assess structure/function relationships. The structure of the infarct wall was measured histologically to determine the extent of myocardial infarction and myocardial tissue salvage. In this model, blood reperfusion to the site of ischemia is designed to salvage myocardium within the area at risk of myocardial infarction. However, in this model, there is potential for additional insult to tissue caused by reperfusion that can stimulate added myocardial necrosis. Therefore, measurement of myocardial salvage within the myocardial infarct zone is an important endpoint in this model. […] Preservation of viable myocardium was obtained at the 0.1, 1 and 10 mg/kg doses (31-41% preservation relative to vehicle, *P<0.05, **P<0.01, ***P<0.001).
A pressure-volume conductance catheter was used to measure left ventricular ejection fraction at the end of the treatment phase. The fraction of blood pumped out of the left ventricle was measured per contraction cycle (i.e., ejection fraction) and was used to assess overall cardiac function following 6 weeks of treatment. […]

Chain of Rat FPR2 (Rattus norvegicus, UniProt A0A8I6AM80) (A0A8I6AM80 1-351): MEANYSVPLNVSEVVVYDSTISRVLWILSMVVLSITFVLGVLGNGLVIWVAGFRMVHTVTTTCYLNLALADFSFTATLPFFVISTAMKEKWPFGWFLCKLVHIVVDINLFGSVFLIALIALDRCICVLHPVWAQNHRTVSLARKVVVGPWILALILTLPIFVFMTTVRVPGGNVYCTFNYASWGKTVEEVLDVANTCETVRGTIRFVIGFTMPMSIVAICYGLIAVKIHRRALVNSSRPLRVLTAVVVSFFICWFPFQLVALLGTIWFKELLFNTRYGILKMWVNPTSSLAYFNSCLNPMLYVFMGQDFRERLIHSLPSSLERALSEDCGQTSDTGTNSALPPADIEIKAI

As usually defined, the EC50 is the concentration at which the effect is half-maximal. Read a low EC50 as a more potent agent. Regarding `COc1cc(F)c([C@@H]2CNC(=O)[C@H]2NC(=O)Nc2ccccc2)c(F)c1` [Compound 1, 1-((3S,4R)-4-(2,6-difluoro-4-methoxyphenyl)-2-oxopyrrolidin-3-yl)-3-phenylurea], the EC50 at Human FPR1 turned out to be 1250 nM; on Rat FPR2 [1], 1.5 nM. Moreover, in the experiment with Rat FPR2 [2], the “selectivity for rat FPR2 vs. FPR1” value was determined as 480 fold. The “improvement in left ventricular ejection fraction vs. vehicle (pressure-volume conductance catheter)” value in experiment [3] (0.01 mg/kg PO QD, P<0.05) was 37%; in experiment [3] (1 mg/kg PO QD, P<0.01) it was 51%. Moreover, the “preservation of viable myocardium across infarct wall relative to vehicle” value in experiment [3] (0.1, 1 and 10 mg/kg PO QD) is on record as 31-41%. Further, in experiment [3] (other doses (0.1 and 10 mg/kg)), the “left ventricular ejection fraction vs. vehicle (pressure-volume conductance catheter)” value is listed as “trend towards improved ejection fraction”.
